What was measured:
hCA XII = target: T1, hCA XII (Homo sapiens, UniProt O43570); experiment: stopped flow CO2 hydrase assay, CA XII; format: biochemical; settings: for Selectivity index (SI) CA I/CA XII / Selectivity index (SI) CA II/CA XII: ratio between KI values; for Ki: stopped flow CO2 hydrase assay, mean from 3 different assays, errors ±5–10%
T1 construct: made in house
Method: (§1) An Applied Photophysics stopped-flow instrument was used for assaying the CA catalyzed CO2 hydration activity. Phenol red (at a concentration of 0.2 mM) was used as an indicator, working at the absorbance maximum of 557 nm, with 20 mM HEPES (pH 7.5) as buffer, and 20 mM Na2SO4 (for maintaining constant the ionic strength), following the initial rates of the CA-catalyzed CO2 hydration reaction for a period of 10–100 s. The CO2 concentrations ranged from 1.7 to 17 mM for the determination of the kinetic parameters and inhibition constants. For each inhibitor, at least six traces of the initial 5–10% of the reaction were used for determining the initial velocity. The uncatalyzed rates were determined in the same manner and subtracted from the total observed rates. Stock solutions of inhibitor (0.1 mM) were prepared in distilled–deionized water, and dilutions up to 0.01 nM were done thereafter with the assay buffer. Inhibitor and enzyme solutions were preincubated together for 45 min at room temperature prior to assay in order to allow for the formation of the E–I complex. The inhibition constants were obtained by non-linear least-squares methods using PRISM 3 and the Cheng–Prusoff equation, as reported earlier, representing the mean from at least three different determinations. […] All CA isoforms were recombinant ones obtained in-house, as reported earlier.

hCA IX = target: T2, hCA IX (Homo sapiens, UniProt Q16790); experiment: stopped flow CO2 hydrase assay, CA IX; format: biochemical; settings: for Selectivity index (SI) CA I/CA IX / Selectivity index (SI) CA II/CA IX: ratio between KI values; for Ki: stopped flow CO2 hydrase assay, mean from 3 different assays, errors ±5–10%
T2 construct: made in house
Method: as §1

hCA II = target: T3, hCA II (Homo sapiens, UniProt P00918); experiment: stopped flow CO2 hydrase assay, CA II; format: biochemical; settings: mean from 3 different assays, errors ±5–10%
T3 construct: made in house
Method: as §1

hCA IV = target: T4, hCA IV (Homo sapiens, UniProt P22748); experiment: stopped flow CO2 hydrase assay, CA IV; format: biochemical; settings: mean from 3 different assays, errors ±5–10%
T4 construct: made in house
Method: as §1

hCA I = target: T5, hCA I (Homo sapiens, UniProt P00915); experiment: stopped flow CO2 hydrase assay, CA I; format: biochemical; settings: mean from 3 different assays, errors ±5–10%
T5 construct: made in house
Method: as §1

T1 sequence (O43570 25-354): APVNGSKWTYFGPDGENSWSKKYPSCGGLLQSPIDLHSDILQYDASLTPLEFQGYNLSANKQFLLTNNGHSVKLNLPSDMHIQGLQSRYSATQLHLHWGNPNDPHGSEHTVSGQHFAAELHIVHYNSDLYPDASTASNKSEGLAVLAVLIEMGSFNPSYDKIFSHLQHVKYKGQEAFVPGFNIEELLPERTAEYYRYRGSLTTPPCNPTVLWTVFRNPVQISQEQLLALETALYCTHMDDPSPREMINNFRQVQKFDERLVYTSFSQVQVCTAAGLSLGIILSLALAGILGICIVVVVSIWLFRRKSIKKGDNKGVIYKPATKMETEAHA
T4 sequence (P22748 19-312): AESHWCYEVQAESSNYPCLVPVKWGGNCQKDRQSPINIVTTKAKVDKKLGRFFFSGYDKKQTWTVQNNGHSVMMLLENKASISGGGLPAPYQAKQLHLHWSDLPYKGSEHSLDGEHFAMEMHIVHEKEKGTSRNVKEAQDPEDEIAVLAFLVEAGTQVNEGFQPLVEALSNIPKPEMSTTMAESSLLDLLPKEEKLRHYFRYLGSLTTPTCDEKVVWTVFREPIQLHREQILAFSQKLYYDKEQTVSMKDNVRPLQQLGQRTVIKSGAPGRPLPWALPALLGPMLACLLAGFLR
T5 sequence (P00915 whole entry): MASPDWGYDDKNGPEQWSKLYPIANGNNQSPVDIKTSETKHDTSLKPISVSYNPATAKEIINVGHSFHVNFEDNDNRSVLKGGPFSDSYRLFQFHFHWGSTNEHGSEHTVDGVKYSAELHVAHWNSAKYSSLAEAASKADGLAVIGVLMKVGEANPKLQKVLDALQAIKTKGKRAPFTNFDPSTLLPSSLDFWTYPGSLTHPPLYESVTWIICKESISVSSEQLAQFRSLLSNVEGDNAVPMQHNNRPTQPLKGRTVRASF

Row | SMILES | melting point [°C] | Selectivity index (SI) CA I/CA XII (hCA XII) | Selectivity index (SI) CA II/CA XII (hCA XII) | Ki (hCA XII) [nM] | Selectivity index (SI) CA I/CA IX (hCA IX) | Selectivity index (SI) CA II/CA IX (hCA IX) | Ki (hCA IX) [nM] | Ki (hCA II) [nM] | Ki (hCA IV) [nM] | Ki (hCA I) [nM]
1 | NS(=O)(=O)c1ccc(NCc2cn(CCCS(=O)(=O)[O-])nn2)cc1.[Na+] [Compound 32, Sodium 3-(4-(((4-sulfamoylphenyl)amino)methyl)-1H-1,2,3-triazol-1-yl)propane-1-sulfonate] | > 300 | 1.1 | 0.01 | 433 | 1.0 | 0.01 | 459 | 4.2 | 43.1 | 460
2 | CCC(=O)Nc1cc(S(N)(=O)=O)ccc1OCc1cn(CCCS(=O)(=O)[O-])nn1.[Na+] [Compound 40, Sodium 3-(4-((2-propionamido-4-sulfamoylphenoxy)methyl)-1H-1,2,3-triazol-1-yl)propane-1-sulfonate] | > 300 | 194 | 0.14 | 47.1 | 167 | 0.12 | 54.8 | 6.6 | 322 | 9160
3 | NS(=O)(=O)c1ccc(-c2cn(CCCS(=O)(=O)[O-])nn2)cc1.[Na+] [Compound 30, Sodium 3-(4-(4-sulfamoylphenyl)-1H-1,2,3-triazol-1-yl)propane-1-sulfonate] | > 300 | 12 | 0.48 | 6.7 | 2.3 | 0.09 | 35.9 | 3.2 | 429 | 83.5
4 | NS(=O)(=O)c1ccc(CCNC(=O)NCc2cn(CCCS(=O)(=O)[O-])nn2)cc1.[Na+] [Compound 36, Sodium 3-(4-((3-(4-sulfamoylphenethyl)ureido)methyl)-1H-1,2,3-triazol-1-yl)propane-1-sulfonate] | 217 to 219 | 8.8 | 4.9 | 8.7 | 0.3 | 0.15 | 282 | 43.1 | 870 | 76.8
5 | NS(=O)(=O)c1ccc(CNC(=O)NCc2cn(CCCS(=O)(=O)[O-])nn2)cc1.[Na+] [Compound 35, Sodium 3-(4-((3-(4-sulfamoylbenzyl)ureido)methyl)-1H-1,2,3-triazol-1-yl)propane-1-sulfonate] | 295 to 297 | 49 | 8.4 | 16.4 | 11 | 1.9 | 71.8 | 139 | 50.2 | 807
6 | NS(=O)(=O)c1ccc(OCc2cn(CCCS(=O)(=O)[O-])nn2)cc1.[Na+] [Compound 31, Sodium 3-(4-((4-sulfamoylphenoxy)methyl)-1H-1,2,3-triazol-1-yl)propane-1-sulfonate] | 290 to 293 | 1.7 | 0.02 | 47.7 | 1.8 | 0.02 | 44.4 | 0.9 | 38.3 | 82.7
